Experiments:
K562 = assay: Antiproliferative activity against human K562 cells; assay type: functional, cell-based
OCI-AML2 = assay: Antiproliferative activity against human OCI-AML2 cells; assay type: functional, cell-based
[1] = Antiproliferative activity against human OCI-AML3 cells; assay type: functional, cell-based; conditions: OCI-AML-3
Aurora kinase A = target: T1, Aurora kinase A (Homo sapiens, UniProt O14965); assay: Inhibition of aurora A
T1 sequence (O14965 whole entry): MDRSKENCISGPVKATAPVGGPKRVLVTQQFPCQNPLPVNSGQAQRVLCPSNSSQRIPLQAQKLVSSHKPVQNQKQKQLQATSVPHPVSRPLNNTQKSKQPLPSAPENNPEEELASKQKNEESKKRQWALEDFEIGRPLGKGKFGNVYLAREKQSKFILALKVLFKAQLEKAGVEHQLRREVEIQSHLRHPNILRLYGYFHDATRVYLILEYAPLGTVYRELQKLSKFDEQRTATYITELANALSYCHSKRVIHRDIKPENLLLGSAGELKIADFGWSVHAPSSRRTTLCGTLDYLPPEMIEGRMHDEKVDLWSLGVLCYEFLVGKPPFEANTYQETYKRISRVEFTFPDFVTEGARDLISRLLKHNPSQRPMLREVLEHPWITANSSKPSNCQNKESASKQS

HEL = assay: Antiproliferative activity against human HEL 92.1.7 cells; assay type: functional, cell-based
[2] = Antiproliferative activity against human F-36P cells; assay type: functional, cell-based
[3] = target: T2, 3-phosphoinositide-dependent protein kinase 1 (Homo sapiens, UniProt O15530); assay: Inhibition of PDK1
T2 sequence (O15530 whole entry): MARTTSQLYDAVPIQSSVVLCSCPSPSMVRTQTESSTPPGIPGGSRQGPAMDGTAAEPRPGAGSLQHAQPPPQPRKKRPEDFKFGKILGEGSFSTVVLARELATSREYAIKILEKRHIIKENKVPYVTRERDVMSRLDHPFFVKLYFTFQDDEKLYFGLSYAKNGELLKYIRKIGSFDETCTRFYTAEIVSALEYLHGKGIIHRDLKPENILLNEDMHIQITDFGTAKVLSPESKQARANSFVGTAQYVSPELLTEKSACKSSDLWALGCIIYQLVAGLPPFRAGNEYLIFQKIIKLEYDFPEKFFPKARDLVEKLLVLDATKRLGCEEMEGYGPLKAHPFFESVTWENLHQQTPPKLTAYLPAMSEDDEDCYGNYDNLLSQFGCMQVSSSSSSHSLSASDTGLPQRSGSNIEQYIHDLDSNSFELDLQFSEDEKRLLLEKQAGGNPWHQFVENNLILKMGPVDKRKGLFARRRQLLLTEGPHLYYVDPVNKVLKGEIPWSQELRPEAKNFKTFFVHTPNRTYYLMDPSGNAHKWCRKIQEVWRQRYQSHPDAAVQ

[4] = target: T2, 3-phosphoinositide-dependent protein kinase 1; assay: Inhibition of PDK1-mediated RSK phosphorylation at Ser221 residue in human PC3 cells by ELISA; assay type: cell-based, PC-3
TGF-beta receptor type-1 = target: T3, TGF-beta receptor type-1 (Homo sapiens, UniProt P36897); assay: Inhibition of ALK5; conditions: read-out: pIC50 (converted)
T3 sequence (P36897 whole entry): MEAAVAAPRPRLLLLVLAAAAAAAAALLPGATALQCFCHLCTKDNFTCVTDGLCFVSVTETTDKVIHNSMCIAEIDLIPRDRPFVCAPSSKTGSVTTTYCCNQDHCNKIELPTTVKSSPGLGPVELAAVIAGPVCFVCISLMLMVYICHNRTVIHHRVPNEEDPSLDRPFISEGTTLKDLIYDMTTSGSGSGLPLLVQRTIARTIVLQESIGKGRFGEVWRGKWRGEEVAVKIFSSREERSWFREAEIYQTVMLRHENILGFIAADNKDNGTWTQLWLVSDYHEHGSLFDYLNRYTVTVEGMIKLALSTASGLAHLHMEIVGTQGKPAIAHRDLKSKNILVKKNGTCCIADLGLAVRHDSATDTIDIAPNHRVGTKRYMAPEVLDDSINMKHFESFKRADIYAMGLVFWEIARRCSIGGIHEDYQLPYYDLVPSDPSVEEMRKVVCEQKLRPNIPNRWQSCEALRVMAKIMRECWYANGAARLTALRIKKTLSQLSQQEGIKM

[5] = target: Rho-associated protein kinase 1 (Homo sapiens, UniProt Q13464); assay: Inhibition of ROCK1
Aurora kinase B = Aurora kinase B (Homo sapiens, UniProt Q96GD4); assay: Inhibition of aurora B
[6] = target: T2, 3-phosphoinositide-dependent protein kinase 1; assay: Inhibition of PDK1-mediated AKT phosphorylation at Thr308 residue in human PC3 cells by ELISA; assay type: cell-based, PC-3

Sequence of Rho-associated protein kinase 1 (Q13464 whole entry): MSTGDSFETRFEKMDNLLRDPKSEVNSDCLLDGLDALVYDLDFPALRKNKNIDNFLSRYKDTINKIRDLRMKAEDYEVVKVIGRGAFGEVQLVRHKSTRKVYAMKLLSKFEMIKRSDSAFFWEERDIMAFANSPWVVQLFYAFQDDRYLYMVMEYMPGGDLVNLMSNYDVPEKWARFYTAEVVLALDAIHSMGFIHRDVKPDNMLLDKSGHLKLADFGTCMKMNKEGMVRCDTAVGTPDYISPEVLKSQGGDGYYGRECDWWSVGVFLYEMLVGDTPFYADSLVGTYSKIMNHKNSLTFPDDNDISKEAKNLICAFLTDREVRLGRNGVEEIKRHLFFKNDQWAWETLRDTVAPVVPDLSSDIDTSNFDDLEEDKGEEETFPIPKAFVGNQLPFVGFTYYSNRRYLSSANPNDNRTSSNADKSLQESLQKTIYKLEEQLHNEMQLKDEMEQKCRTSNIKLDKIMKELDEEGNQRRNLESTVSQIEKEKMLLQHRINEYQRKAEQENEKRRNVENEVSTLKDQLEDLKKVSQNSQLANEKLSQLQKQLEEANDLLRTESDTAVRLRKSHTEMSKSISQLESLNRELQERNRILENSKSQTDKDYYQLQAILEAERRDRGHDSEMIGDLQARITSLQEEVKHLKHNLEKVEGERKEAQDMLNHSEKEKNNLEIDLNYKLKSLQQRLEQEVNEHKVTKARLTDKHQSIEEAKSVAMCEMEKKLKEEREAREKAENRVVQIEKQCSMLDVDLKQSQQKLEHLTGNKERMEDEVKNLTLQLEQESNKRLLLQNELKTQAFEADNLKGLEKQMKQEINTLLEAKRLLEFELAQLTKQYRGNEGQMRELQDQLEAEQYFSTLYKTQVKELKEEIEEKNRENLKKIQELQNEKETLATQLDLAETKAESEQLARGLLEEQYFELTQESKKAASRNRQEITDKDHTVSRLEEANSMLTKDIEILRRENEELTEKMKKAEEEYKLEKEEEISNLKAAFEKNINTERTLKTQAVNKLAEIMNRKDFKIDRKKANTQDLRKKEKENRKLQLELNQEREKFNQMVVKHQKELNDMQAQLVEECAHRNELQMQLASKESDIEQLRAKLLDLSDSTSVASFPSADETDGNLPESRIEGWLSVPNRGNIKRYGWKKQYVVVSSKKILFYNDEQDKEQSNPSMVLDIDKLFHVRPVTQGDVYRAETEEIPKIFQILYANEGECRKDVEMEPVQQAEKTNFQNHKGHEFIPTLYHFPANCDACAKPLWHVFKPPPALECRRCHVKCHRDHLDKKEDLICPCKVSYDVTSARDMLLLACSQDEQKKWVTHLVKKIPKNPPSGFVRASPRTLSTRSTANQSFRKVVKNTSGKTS
Sequence of Aurora kinase B (Q96GD4 whole entry): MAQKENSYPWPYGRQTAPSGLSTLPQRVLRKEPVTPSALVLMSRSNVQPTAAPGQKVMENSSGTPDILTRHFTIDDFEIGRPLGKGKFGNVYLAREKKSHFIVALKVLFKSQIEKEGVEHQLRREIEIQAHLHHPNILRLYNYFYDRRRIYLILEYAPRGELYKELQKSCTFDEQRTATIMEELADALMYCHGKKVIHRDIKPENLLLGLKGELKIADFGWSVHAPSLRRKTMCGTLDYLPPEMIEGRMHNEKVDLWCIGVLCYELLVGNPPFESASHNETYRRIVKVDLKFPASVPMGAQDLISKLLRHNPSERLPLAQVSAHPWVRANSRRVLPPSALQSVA

| Structure (SMILES) | IC50 (K562) [nM] | IC50 (OCI-AML2) [nM] | IC50 [1] [nM] | IC50 (Aurora kinase A) [nM] | IC50 (HEL) [nM] | IC50 [2] [nM] | IC50 [3] [nM] | IC50 [4] [nM] | IC50 (TGF-beta receptor type-1) [nM] | IC50 [5] [nM] | IC50 (Aurora kinase B) [nM] | IC50 [6] [nM] |
| --- | --- | --- | --- | --- | --- | --- | --- | --- | --- | --- | --- | --- |
| CNc1nc(-c2ccc3c(N)n[nH]c3c2)cc(N2C[C@@H](C(=O)Nc3ccccc3)CC[C@H]2C)n1 | 8000 | 580 | 650 | > 10000 | 12000 | 460 | 1.58 | 655 | > 10000 | 3160 | 2000 | 165 |
| CC[C@@H]1CO[C@H](C(=O)NC2CCCCC2)CN1c1cc(-c2ccc3c(N)n[nH]c3c2)nc(NC)n1 | > 30000 | 890 | 760 | > 10000 | 16000 | 460 | 6.31 | 102 | > 10000 | > 10000 | 1580 | 85 |

Source: ChEMBL document CHEMBL1765070, “Structure-based design of potent and selective 3-phosphoinositide-dependent kinase-1 (PDK1) inhibitors” (J Med Chem, 2011)
